Reference: patent US20260027116A1, “Methods of Treating Chronic Graft-Versus-Host Disease Following Allogeneic Hematopoietic Stem Cell Transplantation” (Kadmon Corporation, LLC, priority 2022, published 2026)

Tests used:
CYP2D6 = CYP2D6 (Homo sapiens, UniProt P10635); assay: enzyme inhibition in vitro; format: in vitro ADME
human serum albumin = human serum albumin (Homo sapiens, UniProt P02768); assay: protein binding in vitro; format: in vitro ADME
cGVHD symptoms = assay: Example 1: symptom activity by cGVHD Activity Assessment participant self-report; format: in vivo, human
Source text: Number of Participants With Maximal Improvement From Baseline in Symptom Activity by cGVHD Activity Assessment Participant Self-Report. cGVHD symptom severity was self-reported by participants. Participants were asked to rate their disease symptom severity over the last week on the following questions: skin itching at its worst, moth dryness at its worst, mouth pain at its worst, mouth sensitivity at its worst, main compliant on eyes, symptom severity on eyes. The severity rating was done on a 0 to 10-point numeric rating scare, where score 0 indicated ‘not at all severe cGVHD symptoms’ and score 10 indicated ‘most severe cGVHD symptoms possible’. EOT visit was performed within 3 days after the participant's last dose of study drug. Baseline value was defined as valid and last non-missing value obtained within 28 days prior to participant receiving first study medication. […] Analysis was performed on mITT population.

CYP1A2 = biological target: T1, CYP1A2 (Homo sapiens, UniProt P05177); assay: enzyme inhibition in vitro; format: in vitro ADME
T1 sequence (P05177 1-516): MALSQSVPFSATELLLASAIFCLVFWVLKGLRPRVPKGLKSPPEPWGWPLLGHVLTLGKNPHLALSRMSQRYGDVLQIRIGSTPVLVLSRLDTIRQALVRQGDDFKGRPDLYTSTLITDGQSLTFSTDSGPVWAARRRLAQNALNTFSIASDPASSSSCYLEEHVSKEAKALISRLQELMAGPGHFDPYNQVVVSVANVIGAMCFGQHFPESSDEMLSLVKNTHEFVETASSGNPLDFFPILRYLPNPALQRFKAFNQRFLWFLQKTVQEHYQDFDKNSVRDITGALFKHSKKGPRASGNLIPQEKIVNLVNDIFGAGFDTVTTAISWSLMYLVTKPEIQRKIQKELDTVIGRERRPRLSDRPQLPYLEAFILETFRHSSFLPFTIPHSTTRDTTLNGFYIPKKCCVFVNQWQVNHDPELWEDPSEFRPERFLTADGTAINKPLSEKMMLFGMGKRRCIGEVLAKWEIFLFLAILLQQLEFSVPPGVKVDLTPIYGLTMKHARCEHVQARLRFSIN

CYP3A4 = CYP3A4 (Homo sapiens, UniProt P08684); assay: metabolism in vitro; format: in vitro ADME
Chain of CYP3A4 (P08684 whole entry): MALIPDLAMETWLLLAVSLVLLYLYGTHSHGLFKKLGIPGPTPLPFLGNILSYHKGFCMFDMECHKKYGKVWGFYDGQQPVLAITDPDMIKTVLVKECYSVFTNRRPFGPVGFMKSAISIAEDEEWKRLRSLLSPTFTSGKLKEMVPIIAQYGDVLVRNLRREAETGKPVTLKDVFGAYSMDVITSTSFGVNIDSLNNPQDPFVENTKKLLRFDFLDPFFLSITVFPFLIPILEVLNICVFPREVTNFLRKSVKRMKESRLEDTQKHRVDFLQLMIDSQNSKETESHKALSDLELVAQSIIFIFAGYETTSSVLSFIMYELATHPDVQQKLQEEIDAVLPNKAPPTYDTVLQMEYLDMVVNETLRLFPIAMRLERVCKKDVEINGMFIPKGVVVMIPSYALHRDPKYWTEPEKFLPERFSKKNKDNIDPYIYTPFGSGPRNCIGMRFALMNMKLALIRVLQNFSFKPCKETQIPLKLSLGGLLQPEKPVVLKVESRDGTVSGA

Chain of CYP2D6 (P10635 whole entry): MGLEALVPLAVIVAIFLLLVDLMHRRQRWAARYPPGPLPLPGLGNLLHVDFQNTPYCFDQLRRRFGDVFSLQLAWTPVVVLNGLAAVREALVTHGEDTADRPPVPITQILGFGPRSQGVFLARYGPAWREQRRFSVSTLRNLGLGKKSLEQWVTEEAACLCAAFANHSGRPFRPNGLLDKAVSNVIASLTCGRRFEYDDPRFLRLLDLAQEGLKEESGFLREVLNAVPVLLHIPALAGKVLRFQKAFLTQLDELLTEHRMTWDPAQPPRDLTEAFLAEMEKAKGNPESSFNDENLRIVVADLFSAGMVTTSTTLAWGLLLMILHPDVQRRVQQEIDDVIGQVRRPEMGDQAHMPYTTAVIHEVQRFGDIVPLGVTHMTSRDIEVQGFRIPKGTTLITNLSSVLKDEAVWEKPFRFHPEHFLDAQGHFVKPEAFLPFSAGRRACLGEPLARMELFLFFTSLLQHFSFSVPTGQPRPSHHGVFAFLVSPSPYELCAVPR
Chain of human serum albumin (P02768 25-609): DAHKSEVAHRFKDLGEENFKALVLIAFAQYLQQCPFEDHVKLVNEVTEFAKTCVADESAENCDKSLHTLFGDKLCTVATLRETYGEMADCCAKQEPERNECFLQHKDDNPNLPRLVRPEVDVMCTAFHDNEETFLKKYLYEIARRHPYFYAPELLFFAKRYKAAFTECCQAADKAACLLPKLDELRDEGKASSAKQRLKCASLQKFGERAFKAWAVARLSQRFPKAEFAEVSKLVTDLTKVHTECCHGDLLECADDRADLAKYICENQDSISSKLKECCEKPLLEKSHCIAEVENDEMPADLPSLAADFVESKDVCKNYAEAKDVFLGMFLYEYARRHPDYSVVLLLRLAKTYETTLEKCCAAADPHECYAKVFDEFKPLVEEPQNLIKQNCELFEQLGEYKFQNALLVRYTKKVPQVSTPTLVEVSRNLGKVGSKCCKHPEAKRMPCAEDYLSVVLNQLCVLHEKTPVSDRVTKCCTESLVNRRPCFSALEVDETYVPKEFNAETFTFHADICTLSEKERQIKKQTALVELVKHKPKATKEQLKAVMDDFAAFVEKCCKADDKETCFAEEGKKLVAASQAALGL

CC(C)NC(=O)COc1cccc(-c2nc(Nc3ccc4[nH]ncc4c3)c3ccccc3n2)c1 [Belumosudil, 2-{3-[4-(1H-indazol-5-ylamino)-2-quinazolinyl]phenoxy}-N-(propan-2-yl) acetamide]
4 (19%) participants: self-reported symptom activity maximal improvement −6, participants (%) (cGVHD symptoms; Cohort 3 400 mg QD)
primarily metabolized: metabolism by CYP3A4 (CYP3A4)
1 (5%) participants: self-reported symptom activity maximal improvement 1, participants (%) (cGVHD symptoms; Cohort 3 400 mg QD) | self-reported symptom activity maximal improvement from baseline −8, participants (%) (cGVHD symptoms; Cohort 3 400 mg QD) | self-reported symptom activity maximal improvement −4, participants (%) (cGVHD symptoms; Cohort 3 400 mg QD)
2 (10%) participants: self-reported symptom activity maximal improvement 2, participants (%) (cGVHD symptoms; Cohort 3 400 mg QD) | self-reported symptom activity maximal improvement −1, participants (%) (cGVHD symptoms; Cohort 3 400 mg QD) | self-reported symptom activity maximal improvement −2, participants (%) (cGVHD symptoms; Cohort 3 400 mg QD) | self-reported symptom activity maximal improvement −3, participants (%) (cGVHD symptoms; Cohort 3 400 mg QD) | self-reported symptom activity maximal improvement −5, participants (%) (cGVHD symptoms; Cohort 3 400 mg QD)
inhibitor: inhibition of CYP2D6 (CYP2D6) | inhibition of CYP1A2 (CYP1A2)
3 (18%) participants: self-reported symptom activity maximal improvement −7, participants (%) (cGVHD symptoms; Cohort 1 200 mg QD)
99.9%: binding to human serum albumin (human serum albumin)
2 (13%) participants: self-reported symptom activity maximal improvement −1, participants (%) (cGVHD symptoms; Cohort 2 200 mg BID) | self-reported symptom activity maximal improvement −3, participants (%) (cGVHD symptoms; Cohort 2 200 mg BID) | self-reported symptom activity maximal improvement −4, participants (%) (cGVHD symptoms; Cohort 2 200 mg BID) | self-reported symptom activity maximal improvement −7, participants (%) (cGVHD symptoms; Cohort 2 200 mg BID)
1 (6%) participants: self-reported symptom activity maximal improvement 0, participants (%) (cGVHD symptoms; Cohort 1 200 mg QD) | self-reported symptom activity maximal improvement 4, participants (%) (cGVHD symptoms; Cohort 1 200 mg QD) | self-reported symptom activity maximal improvement 0, participants (%) (cGVHD symptoms; Cohort 2 200 mg BID) | self-reported symptom activity maximal improvement 2, participants (%) (cGVHD symptoms; Cohort 2 200 mg BID) | self-reported symptom activity maximal improvement −6, participants (%) (cGVHD symptoms; Cohort 2 200 mg BID)
0 (0%) participants: self-reported symptom activity maximal improvement 1, participants (%) (cGVHD symptoms; Cohort 1 200 mg QD) | self-reported symptom activity maximal improvement 2, participants (%) (cGVHD symptoms; Cohort 1 200 mg QD) | self-reported symptom activity maximal improvement from baseline −8, participants (%) (cGVHD symptoms; Cohort 1 200 mg QD) | self-reported symptom activity maximal improvement −6, participants (%) (cGVHD symptoms; Cohort 1 200 mg QD) | self-reported symptom activity maximal improvement 1, participants (%) (cGVHD symptoms; Cohort 2 200 mg BID) | self-reported symptom activity maximal improvement 4, participants (%) (cGVHD symptoms; Cohort 2 200 mg BID) | self-reported symptom activity maximal improvement from baseline −8, participants (%) (cGVHD symptoms; Cohort 2 200 mg BID) | self-reported symptom activity maximal improvement −5, participants (%) (cGVHD symptoms; Cohort 2 200 mg BID) | self-reported symptom activity maximal improvement 0, participants (%) (cGVHD symptoms; Cohort 3 400 mg QD) | self-reported symptom activity maximal improvement 4, participants (%) (cGVHD symptoms; Cohort 3 400 mg QD) | self-reported symptom activity maximal improvement −7, participants (%) (cGVHD symptoms; Cohort 3 400 mg QD)
2 (12%) participants: self-reported symptom activity maximal improvement −1, participants (%) (cGVHD symptoms; Cohort 1 200 mg QD) | self-reported symptom activity maximal improvement −2, participants (%) (cGVHD symptoms; Cohort 1 200 mg QD) | self-reported symptom activity maximal improvement −3, participants (%) (cGVHD symptoms; Cohort 1 200 mg QD) | self-reported symptom activity maximal improvement −4, participants (%) (cGVHD symptoms; Cohort 1 200 mg QD) | self-reported symptom activity maximal improvement −5, participants (%) (cGVHD symptoms; Cohort 1 200 mg QD)
3 (19%) participants: self-reported symptom activity maximal improvement −2, participants (%) (cGVHD symptoms; Cohort 2 200 mg BID)
